Assay results: patent US7592345B2, “Piperazine and [1,4]diazepan derivatives as NK antagonists” (Hoffmann-La Roche Inc., priority 2007, dated 2009)

Each compound was assayed against T1, recombinant human NK3 receptor (Homo sapiens, UniProt P29371) (assay: [3H]SR142801 competition binding assay). Details: [3H]SR142801, membranes from HEK293 cells transiently expressing recombinant human NK3 receptor; read-out: hNK3 Ki.
T1 construct: expressed in transfected cells; host or cells: HEK293 cells (transient expression), membranes
T1 sequence (P29371 1-465): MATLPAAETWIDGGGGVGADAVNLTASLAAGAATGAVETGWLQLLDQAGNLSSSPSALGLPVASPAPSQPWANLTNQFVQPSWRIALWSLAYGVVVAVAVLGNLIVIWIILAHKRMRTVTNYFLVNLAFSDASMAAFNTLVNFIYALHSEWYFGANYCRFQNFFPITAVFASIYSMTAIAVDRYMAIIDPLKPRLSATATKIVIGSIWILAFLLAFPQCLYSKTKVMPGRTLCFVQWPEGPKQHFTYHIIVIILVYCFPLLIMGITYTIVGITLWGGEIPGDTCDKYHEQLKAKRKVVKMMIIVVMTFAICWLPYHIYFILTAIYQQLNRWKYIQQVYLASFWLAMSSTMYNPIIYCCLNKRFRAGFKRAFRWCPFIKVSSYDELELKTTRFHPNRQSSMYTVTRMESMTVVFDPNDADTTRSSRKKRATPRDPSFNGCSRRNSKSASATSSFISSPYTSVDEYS
Experimental: [^3H]SR142801 Competition Binding Assay
hNK3 receptor binding experiment were performed using [^3H]SR142801 (Catalog No. TRK1035, specific activity: 74.0 Ci/mmol, Amersham, GE Healthcare UK limited, Buckinghamshire, UK) and membrane isolated from HEK293 cells transiently expressing recombinant human NK3 receptor. After thawing, the membrane homogenates were centrifuged at 48,000×g for 10 min at 4° C., the pellets were resuspended in the 50 mM Tris-HCl, 4 mM MnCl2, 1 μM phosphoramidon, 0.1% BSA binding buffer at pH 7.4 to a final assay concentration of 5 μg protein/well. For inhibition experiments, membranes were incubated with [^3H]SR142801 at a concentration equal to KD value of radioligand and 10 concentrations of the inhibitory compound (0.0003-10 μM) (in a total reaction volume of 500 μl) for 75 min at room temperature (RT). At the end of the incubation, membranes were filtered onto unitfilter (96-well white microplate with bonded GF/C filter preincubated 1 h in 0.3% PEI+0.3% BSA, Packard BioScience, Meriden, Conn.) with a Filtermate 196 harvester (Packard BioScience) and washed 4 times with ice-cold 50 mM Tris-HCl, pH 7.4 buffer. Nonspecific binding was measured in the presence of 10 μM SB222200 for both radioligands. The radioactivity on the filter was counted (5 min) on a Packard Top-count microplate scintillation counter with quenching correction after addition of 45 μl of microscint 40 (Canberra Packard S. A., Zürich, Switzerland) and shaking for 1 h. Inhibition curves were fitted according to the Hill equation: y=100/(1+(x/IC50)^nH), where nH=slope factor using Excel-fit 4 software (Microsoft). IC50 values were derived from the inhibition curve and the affinity constant (Ki) values were calculated using the Cheng-Prussoff equation Ki=IC50/(1+[L]/KD) where [L] is the concentration of radioligand and KD is its dissociation constant at the receptor, derived from the saturation isotherm. All experiments were performed in duplicate and the mean±standard error (SEM) of the individual Ki values was calculated.

| Ki | Structure (SMILES) |
| --- | --- |
| 67.4 nM | CC(NC(=O)C(C)(CCN1CCN(S(C)(=O)=O)[C@@H](C)C1)c1ccc(Cl)c(Cl)c1)c1ccc(Cl)cc1 (stereo partly drawn) [Example 77, N-[1-(4-Chloro-phenyl)-ethyl]-2-(3,4-dichloro-phenyl)-4-((S)-4-methanesulfonyl-3-methyl-piperazin-1-yl)-2-methyl-butyramide] |
| 291 nM | CN(C)c1ccc(CNC(=O)C(C)(CCN2CCCN(S(C)(=O)=O)CC2)c2ccc(Cl)c(Cl)c2)cc1 (stereo not drawn) [Example 110, 2-(3,4-Dichloro-phenyl)-N-(4-dimethylamino-benzyl)-4-(4-methanesulfonyl-[1,4]diazepan-1-yl)-2-methyl-butyramide] |
| 229 nM | CC(NC(=O)C(C)(CCN1CCN(S(C)(=O)=O)CC1)c1ccc(Cl)c(Cl)c1)c1ccc(F)cc1 (stereo not drawn) [Example 134, 2-(3,4-Dichloro-phenyl)-N-[1-(4-fluoro-phenyl)-ethyl]-4-(4-methanesulfonyl-piperazin-1-yl)-2-methyl-butyramide] |
| 121 nM | CC(NC(=O)C(C)(CCN1CCCN(S(C)(=O)=O)CC1)c1ccc(Cl)c(Cl)c1)c1ccc(Cl)cc1 (stereo not drawn) [Example 119, N-[1-(4-Chloro-phenyl)-ethyl]-2-(3,4-dichloro-phenyl)-4-(4-methanesulfonyl-[1,4]diazepan-1-yl)-2-methyl-butyramide] |
| 134 nM | COc1ccc(C(NC(=O)C(C)(CCN2CCCN(S(C)(=O)=O)CC2)c2ccc(Cl)c(Cl)c2)C2CC2)cc1 (stereo not drawn) [Example 105, N-[Cyclopropyl-(4-methoxy-phenyl)-methyl]-2-(3,4-dichloro-phenyl)-4-(4-methanesulfonyl-[1,4]diazepan-1-yl)-2-methyl-butyramide] |
| 136 nM | CC(CCN1CCCN(S(C)(=O)=O)CC1)(C(=O)NCc1cc(C(F)(F)F)ccc1F)c1ccc(Cl)c(Cl)c1 (stereo not drawn) [Example 118, 2-(3,4-Dichloro-phenyl)-N-(2-fluoro-5-trifluoromethyl-benzyl)-4-(4-methanesulfonyl-[1,4]diazepan-1-yl)-2-methyl-butyramide] |
| 66 nM | CC(CCN1CCCN(S(C)(=O)=O)CC1)(C(=O)NCc1ccc(Cl)c(F)c1)c1ccc(Cl)c(Cl)c1 (stereo not drawn) [Example 98, N-(4-Chloro-3-fluoro-benzyl)-2-(3,4-dichloro-phenyl)-4-(4-methanesulfonyl-[1,4]diazepan-1-yl)-2-methyl-butyramide] |
| 146 nM | CC(CCN1CCN(S(C)(=O)=O)CC1)(C(=O)N[C@@H](CO)c1ccc(F)cc1)c1ccc(Cl)c(Cl)c1 (stereo partly drawn) [Example 132, 2-(3,4-Dichloro-phenyl)-N-[(R)-1-(4-fluoro-phenyl)-2-hydroxy-ethyl]-4-(4-methanesulfonyl-piperazin-1-yl)-2-methyl-butyramide] |

Further lines, the compound ahead of its results:

| Structure (SMILES) | Ki |
| --- | --- |
| CC(NC(=O)C(C)(CCN1CCN(S(C)(=O)=O)[C@H](C)C1)c1ccc(Cl)c(Cl)c1)c1ccc(Cl)cc1 (stereo partly drawn) [Example 47, N-[1-(4-Chloro-phenyl)-ethyl]-2-(3,4-dichloro-phenyl)-4-((R)-4-methanesulfonyl-3-methyl-piperazin-1-yl)-2-methyl-butyramide] | 15.9 nM |
| C[C@H]1CN(CCC(C)(C(=O)NCc2ccc(OC(F)(F)F)cc2)c2ccc(Cl)c(Cl)c2)CCN1S(C)(=O)=O (stereo partly drawn) [Example 83, 2-(3,4-Dichloro-phenyl)-4-((S)-4-methanesulfonyl-3-methyl-piperazin-1-yl)-2-methyl-N-(4-trifluoromethoxy-benzyl)-butyramide] | 57.1 nM |
| CC(CCN1CCN2C(CCS2(=O)=O)C1)(C(=O)N[C@@H](CO)c1ccc(F)cc1)c1ccc(Cl)c(Cl)c1 (stereo partly drawn) [Example 137, 2-(3,4-Dichloro-phenyl)-4-(1,1-dioxo-hexahydro-1λ^6-thia-5,7a-diaza-inden-5-yl)-N-[(R)-1-(4-fluoro-phenyl)-2-hydroxy-ethyl]-2-methyl-butyramide] | 30.5 nM |
| CN(Cc1ccc(Cl)c(Cl)c1)C(=O)C(C)(CCN1CCCN(S(C)(=O)=O)CC1)c1ccc(Cl)c(Cl)c1 (stereo not drawn) [Example 113, N-(3,4-Dichloro-benzyl)-2-(3,4-dichloro-phenyl)-4-(4-methanesulfonyl-[1,4]diazepan-1-yl)-2,N-dimethyl-butyramide] | 10.1 nM |
| CN(Cc1ccc(F)c(C(F)(F)F)c1)C(=O)C(C)(CCN1CCCN(S(C)(=O)=O)CC1)c1ccc(Cl)c(Cl)c1 (stereo not drawn) [Example 106, 2-(3,4-Dichloro-phenyl)-N-(4-fluoro-3-trifluoromethyl-benzyl)-4-(4-methanesulfonyl-[1,4]diazepan-1-yl)-2,N-dimethyl-butyramide] | 9.2 nM |
| C[C@H]1CN(CCC(C)(C(=O)N(C)Cc2ccc(C(F)(F)F)nc2)c2ccc(Cl)c(Cl)c2)CCN1S(C)(=O)=O (stereo partly drawn) [Example 90, 2-(3,4-Dichloro-phenyl)-4-((S)-4-methanesulfonyl-3-methyl-piperazin-1-yl)-2,N-dimethyl-N-(6-trifluoromethyl-pyridin-3-ylmethyl)-butyramide] | 525 nM |
| C[C@@H]1CN(CCC(C)(C(=O)NCc2cccc(OC(F)(F)F)c2)c2ccc(Cl)c(Cl)c2)CCN1S(C)(=O)=O (stereo partly drawn) [Example 51, 2-(3,4-Dichloro-phenyl)-4-((R)-4-methanesulfonyl-3-methyl-piperazin-1-yl)-2-methyl-N-(3-trifluoromethoxy-benzyl)-butyramide] | 14.6 nM |
| C[C@H]1CN(CC[C@](C)(C(=O)NCc2ccc(Cl)c(Cl)c2)c2ccc(Cl)c(Cl)c2)CCN1S(C)(=O)=O (single isomer, unassigned) [Example 93, (S or R)—N-(3,4-Dichloro-benzyl)-2-(3,4-dichloro-phenyl)-4-((R)-4-methanesulfonyl-3-methyl-piperazin-1-yl)-2-methyl-butyramide] | 19.2 nM |
| C[C@H]1CN(CCC(C)(C(=O)N(C)Cc2ccc(-c3ccncc3)cc2)c2ccc(Cl)c(Cl)c2)CCN1S(C)(=O)=O (stereo partly drawn) [Example 61, 2-(3,4-Dichloro-phenyl)-4-((S)-4-methanesulfonyl-3-methyl-piperazin-1-yl)-2,N-dimethyl-N-(4-pyridin-4-yl-benzyl)-butyramide] | 247 nM |
| C[C@@H]1CN(CCC(C)(C(=O)N(C)Cc2ccc(C(F)(F)F)c(F)c2)c2ccc(Cl)c(Cl)c2)CCN1S(C)(=O)=O (stereo partly drawn) [Example 40, 2-(3,4-Dichloro-phenyl)-N-(3-fluoro-4-trifluoromethyl-benzyl)-4-((R)-4-methanesulfonyl-3-methyl-piperazin-1-yl)-2,N-dimethyl-butyramide] | 16.7 nM |
| CC(CCN1CCCN(S(C)(=O)=O)CC1)(C(=O)NCc1cc(F)ccc1C(F)(F)F)c1ccc(Cl)c(Cl)c1 (stereo not drawn) [Example 116, 2-(3,4-Dichloro-phenyl)-N-(5-fluoro-2-trifluoromethyl-benzyl)-4-(4-methanesulfonyl-[1,4]diazepan-1-yl)-2-methyl-butyramide] | 575 nM |
| C[C@@H]1CN(CCC(C)(C(=O)NCc2ccc(C(F)(F)F)nc2)c2ccc(Cl)c(Cl)c2)CCN1S(C)(=O)=O (stereo partly drawn) [Example 92, 2-(3,4-Dichloro-phenyl)-4-((R)-4-methanesulfonyl-3-methyl-piperazin-1-yl)-2-methyl-N-(6-trifluoromethyl-pyridin-3-ylmethyl)-butyramide] | 582 nM |
| CC(NC(=O)C(C)(CCN1CCN(S(C)(=O)=O)[C@@H](C)C1)c1ccc(Cl)c(Cl)c1)c1ccc(Cl)c(Cl)c1 (stereo partly drawn) [Example 80, 2-(3,4-Dichloro-phenyl)-N-[1-(3,4-dichloro-phenyl)-ethyl]-4-((S)-4-methanesulfonyl-3-methyl-piperazin-1-yl)-2-methyl-butyramide] | 16.2 nM |
